Reference: ChEMBL document CHEMBL5625183, “Discovery of a novel dual-target inhibitor of CDK12 and PARP1 that induces synthetic lethality for treatment of triple-negative breast cancer” (Eur J Med Chem, 2023)
pIC50: −log10 of the molar value.

Columns and labels:
MDA-MB-231 = test: Antiproliferative activity against human MDA-MB-231 cells assessed as inhibition of cell growth incubated for 24 hrs by MTT assay; type: functional, cell-based; conditions: MDA-MB-231, 24 h
MDA-MB-468 = test: Antiproliferative activity against human MDA-MB-468 cells assessed as inhibition of cell growth incubated for 24 hrs by MTT assay; type: functional, cell-based; conditions: MDA-MB-468, 24 h
MDA-MB-436 = test: Antiproliferative activity against human MDA-MB-436 cells assessed as inhibition of cell growth incubated for 24 hrs by MTT assay; type: functional, cell-based; conditions: Homo sapiens, MDA-MB-436, 24 h
[1] = biological target: Cyclin-dependent kinase 12 (Homo sapiens, UniProt Q9NYV4); test: Inhibition of CDK12 (unknown origin) at 1 uM in presence of ATP by kinase-glo plus luminescent assay relative to control
Chain of Cyclin-dependent kinase 12 (Q9NYV4 whole entry, looked up): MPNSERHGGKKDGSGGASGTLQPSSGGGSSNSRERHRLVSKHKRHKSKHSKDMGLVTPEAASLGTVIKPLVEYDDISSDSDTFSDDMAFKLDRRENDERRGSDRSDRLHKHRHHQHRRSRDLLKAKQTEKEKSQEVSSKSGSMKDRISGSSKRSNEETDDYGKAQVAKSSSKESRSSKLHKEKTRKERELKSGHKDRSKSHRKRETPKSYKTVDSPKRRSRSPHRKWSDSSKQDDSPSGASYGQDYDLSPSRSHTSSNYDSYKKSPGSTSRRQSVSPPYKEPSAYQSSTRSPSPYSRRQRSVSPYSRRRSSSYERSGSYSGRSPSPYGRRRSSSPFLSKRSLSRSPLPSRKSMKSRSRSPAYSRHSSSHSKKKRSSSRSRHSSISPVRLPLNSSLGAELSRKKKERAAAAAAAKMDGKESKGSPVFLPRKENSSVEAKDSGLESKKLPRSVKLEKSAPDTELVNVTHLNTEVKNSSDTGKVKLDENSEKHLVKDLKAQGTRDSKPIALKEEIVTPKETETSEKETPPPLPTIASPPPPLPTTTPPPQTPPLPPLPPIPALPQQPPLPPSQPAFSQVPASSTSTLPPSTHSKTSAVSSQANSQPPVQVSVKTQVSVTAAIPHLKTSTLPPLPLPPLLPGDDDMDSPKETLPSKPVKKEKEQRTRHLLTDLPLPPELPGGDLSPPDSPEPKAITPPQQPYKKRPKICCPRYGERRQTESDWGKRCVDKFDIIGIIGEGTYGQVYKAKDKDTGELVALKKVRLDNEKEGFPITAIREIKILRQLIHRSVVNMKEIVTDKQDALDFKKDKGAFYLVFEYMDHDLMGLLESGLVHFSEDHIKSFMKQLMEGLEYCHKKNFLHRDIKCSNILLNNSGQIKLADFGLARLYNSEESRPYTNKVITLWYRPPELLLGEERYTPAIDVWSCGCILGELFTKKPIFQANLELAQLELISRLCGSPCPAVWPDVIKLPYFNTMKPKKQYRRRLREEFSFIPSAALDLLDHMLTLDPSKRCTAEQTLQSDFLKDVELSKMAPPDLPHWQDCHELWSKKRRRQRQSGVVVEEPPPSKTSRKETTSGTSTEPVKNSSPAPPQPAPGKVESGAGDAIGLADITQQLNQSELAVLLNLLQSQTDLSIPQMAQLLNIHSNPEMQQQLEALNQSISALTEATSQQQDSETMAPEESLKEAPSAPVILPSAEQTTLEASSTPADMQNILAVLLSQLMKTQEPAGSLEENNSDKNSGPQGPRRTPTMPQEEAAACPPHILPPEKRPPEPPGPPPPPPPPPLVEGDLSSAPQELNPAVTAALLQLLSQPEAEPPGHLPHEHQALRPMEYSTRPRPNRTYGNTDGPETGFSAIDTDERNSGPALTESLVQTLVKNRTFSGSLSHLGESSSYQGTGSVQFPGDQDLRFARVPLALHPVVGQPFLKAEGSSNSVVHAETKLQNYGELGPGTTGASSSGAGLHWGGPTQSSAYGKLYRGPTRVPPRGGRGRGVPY

SMILES | pIC50 (MDA-MB-231) | pIC50 (MDA-MB-468) | pIC50 (MDA-MB-436) | inhibition [1] [%]
NC(=O)c1cccc2[nH]c(NC(=O)c3cccc(C(=O)N4CCC(Nc5ncc([N+](=O)[O-])cn5)CC4)c3)nc12 | < 4.52 | < 4.52 | < 4.52 | 5.4
NC(=O)c1cccc2[nH]c(NC(=O)c3cccc(C(=O)N4CCC(Nc5ccc(C(F)(F)F)cn5)CC4)c3)nc12 | < 4.52 | < 4.52 | < 4.52 | 19.8
CCc1cnc(NC2CCN(C(=O)c3cccc(C(=O)Nc4nc5c(C(N)=O)cccc5[nH]4)c3)CC2)nc1 | 4.62 | 4.64 | 4.67 | 48.7
NC(=O)c1cccc2[nH]c(NC(=O)c3ccc(C(=O)N4CCN(c5ncc(Cl)cn5)CC4)cc3)nc12 | 4.55 | 4.56 | 4.56 | 37.4
NC(=O)c1cccc2[nH]c(NC(=O)c3ccc(C(=O)N4CCC(Nc5ccc(Br)cn5)CC4)cc3)nc12 | < 4.52 | < 4.52 | < 4.52 | 25.9
NC(=O)c1cccc2[nH]c(NC(=O)c3cccc(C(=O)N4CCC(Nc5ncccn5)CC4)c3)nc12 | < 4.52 | < 4.52 | < 4.52 | 25
NC(=O)c1cccc2[nH]c(NC(=O)c3ccc(C(=O)N4CCN(c5ccc(C(F)(F)F)cn5)CC4)cc3)nc12 | 4.57 | 4.56 | 4.59 | 39.8
NC(=O)c1cccc2[nH]c(NC(=O)c3ccc(CN4CCC(Nc5ncc(C(F)(F)F)cn5)CC4)cc3)nc12 | 4.57 | 4.56 | < 4.52 | 34
NC(=O)c1cccc2[nH]c(NC(=O)c3ccc(C(=O)N4CCC(Nc5ncc(F)cn5)CC4)cc3)nc12 | 4.54 | 4.58 | 4.61 | 38.8
NC(=O)c1cccc2[nH]c(NC(=O)c3ccc(C(=O)N4CCC(Nc5ncc(Cl)cn5)CC4)cc3)nc12 | 4.60 | 4.63 | 4.68 | 50.7
NC(=O)c1cccc2[nH]c(NC(=O)c3ccc(C(=O)N4CCN(c5ncc(Br)cn5)CC4)cc3)nc12 | 4.62 | 4.60 | 4.63 | 41.6
NC(=O)c1cccc2[nH]c(NC(=O)c3ccc(C(=O)N4CCC(Nc5nccc(C(F)(F)F)n5)CC4)cc3)nc12 | < 4.52 | < 4.52 | < 4.52 | 16.8
NC(=O)c1cccc2[nH]c(NC(=O)c3ccc(CN4CCC(Nc5ncc(F)cn5)CC4)cc3)nc12 | < 4.52 | < 4.52 | < 4.52 | 30.3
N#Cc1ccc(NC2CCN(C(=O)c3ccc(C(=O)Nc4nc5c(C(N)=O)cccc5[nH]4)cc3)CC2)nc1 | < 4.52 | < 4.52 | < 4.52 | 13.3
NC(=O)c1cccc2[nH]c(NC(=O)c3cccc(C(=O)N4CCN(c5ncc(C(F)(F)F)cn5)CC4)c3)nc12 | 4.72 | 4.71 | 4.75 | 52.1
Cc1cnc(NC2CCN(C(=O)c3cccc(C(=O)Nc4nc5c(C(N)=O)cccc5[nH]4)c3)CC2)nc1 | < 4.52 | < 4.52 | < 4.52 | 1.3
COc1cnc(NC2CCN(C(=O)c3ccc(C(=O)Nc4nc5c(C(N)=O)cccc5[nH]4)cc3)CC2)nc1 | 4.56 | 4.54 | 4.59 | 31.5
NC(=O)c1cccc2[nH]c(NC(=O)c3ccc(C(=O)N4CCN(c5ncc(C(F)(F)F)cn5)CC4)cc3)nc12 | 4.62 | 4.62 | 4.62 | 43
NC(=O)c1cccc2[nH]c(NC(=O)c3cccc(C(=O)N4CCN(c5ncc(F)cn5)CC4)c3)nc12 | < 4.52 | < 4.52 | < 4.52 | 31.6
NC(=O)c1cccc2[nH]c(NC(=O)c3ccc(S(=O)(=O)N4CCC(Nc5ncc(C(F)(F)F)cn5)CC4)cc3)nc12 | 4.57 | 4.60 | 4.57 | 69.9
NC(=O)c1cccc2[nH]c(NC(=O)c3cccc(C(=O)N4CCC(Nc5ccc(I)cn5)CC4)c3)nc12 | < 4.52 | < 4.52 | < 4.52 | 30.1
NC(=O)c1cccc2[nH]c(NC(=O)c3ccc(C(=O)N4CCC(Nc5ncc([N+](=O)[O-])cn5)CC4)cc3)nc12 | < 4.52 | < 4.52 | < 4.52 | 24.1
N#Cc1cnc(NC2CCN(C(=O)c3cccc(C(=O)Nc4nc5c(C(N)=O)cccc5[nH]4)c3)CC2)nc1 | < 4.52 | < 4.52 | < 4.52 | 21.7

SMILES | pIC50 (MDA-MB-231) | pIC50 (MDA-MB-468) | pIC50 (MDA-MB-436) | inhibition [1] [%]
Cc1cnc(NC2CCN(C(=O)c3ccc(C(=O)Nc4nc5c(C(N)=O)cccc5[nH]4)cc3)CC2)nc1 | 4.59 | 4.56 | 4.64 | 35.6
NC(=O)c1cccc2[nH]c(NC(=O)c3cccc(C(=O)N4CCN(c5ncc(Br)cn5)CC4)c3)nc12 | 4.61 | 4.63 | 4.66 | 46.2
NC(=O)c1cccc2[nH]c(NC(=O)c3cccc(C(=O)N4CCC(Nc5ccc(Br)cn5)CC4)c3)nc12 | < 4.52 | < 4.52 | < 4.52 | 25.6
NC(=O)c1cccc2[nH]c(NC(=O)c3ccc(CN4CCC(Nc5ncc(Cl)cn5)CC4)cc3)nc12 | 4.57 | < 4.52 | 4.59 | 43.1
N#Cc1cnc(N2CCN(C(=O)c3cccc(C(=O)Nc4nc5c(C(N)=O)cccc5[nH]4)c3)CC2)nc1 | < 4.52 | < 4.52 | < 4.52 | 32.6
NC(=O)c1cccc2[nH]c(NC(=O)c3ccc(C(=O)N4CCC(Nc5ncc(C(F)(F)F)cn5)CC4)cc3)nc12 | 4.64 | 4.60 | 4.63 | 54.6
NC(=O)c1cccc2[nH]c(NC(=O)c3ccc(C(=O)N4CCN(c5ncc(F)cn5)CC4)cc3)nc12 | < 4.52 | < 4.52 | < 4.52 | 19.8
NC(=O)c1cccc2[nH]c(NC(=O)c3ccc(C(=O)N4CCC(Nc5ncc(I)cn5)CC4)cc3)nc12 | 4.71 | 4.73 | 4.78 | 61.7
COc1cnc(NC2CCN(C(=O)c3cccc(C(=O)Nc4nc5c(C(N)=O)cccc5[nH]4)c3)CC2)nc1 | 4.60 | 4.55 | 4.64 | 36.4
CCc1cnc(NC2CCN(C(=O)c3ccc(C(=O)Nc4nc5c(C(N)=O)cccc5[nH]4)cc3)CC2)nc1 | 4.61 | 4.61 | 4.65 | 44.1
NC(=O)c1cccc2[nH]c(NC(=O)c3ccc(C(=O)N4CCC(Nc5ncccn5)CC4)cc3)nc12 | 4.52 | 4.54 | 4.60 | 32.4
NC(=O)c1cccc2[nH]c(NC(=O)c3cccc(C(=O)N4CCN(c5ncc(I)cn5)CC4)c3)nc12 | 4.70 | 4.66 | 4.68 | 49.6
NC(=O)c1cccc2[nH]c(NC(=O)c3ccc(CN4CCC(Nc5ncc(Br)cn5)CC4)cc3)nc12 | 4.58 | 4.59 | 4.62 | 45.4
NC(=O)c1cccc2[nH]c(NC(=O)c3cccc(C(=O)N4CCN(c5ccc(C(F)(F)F)cn5)CC4)c3)nc12 | 4.60 | 4.56 | 4.61 | 46.4
NC(=O)c1cccc2[nH]c(NC(=O)c3ccc(C(=O)N4CCC(Nc5ccc(C(F)(F)F)cn5)CC4)cc3)nc12 | < 4.52 | < 4.52 | < 4.52 | 26.7
N#Cc1cnc(N2CCN(C(=O)c3ccc(C(=O)Nc4nc5c(C(N)=O)cccc5[nH]4)cc3)CC2)nc1 | < 4.52 | < 4.52 | < 4.52 | 28.5
NC(=O)c1cccc2[nH]c(NC(=O)c3ccc(C(=O)N4CCN(c5ncc(I)cn5)CC4)cc3)nc12 | 4.59 | 4.58 | 4.64 | 45.2
NC(=O)c1cccc2[nH]c(NC(=O)c3cccc(C(=O)N4CCN(c5ncc(Cl)cn5)CC4)c3)nc12 | 4.60 | 4.62 | < 4.52 | 44.1
NC(=O)c1cccc2[nH]c(NC(=O)c3ccc(C(=O)N4CCC(Nc5ncc(Br)cn5)CC4)cc3)nc12 | 4.71 | 4.67 | 4.76 | 55.4
N#Cc1cnc(NC2CCN(C(=O)c3ccc(C(=O)Nc4nc5c(C(N)=O)cccc5[nH]4)cc3)CC2)nc1 | < 4.52 | < 4.52 | < 4.52 | 27.5
NC(=O)c1cccc2[nH]c(NC(=O)c3ccc(C(=O)N4CCC(Nc5ccc(I)cn5)CC4)cc3)nc12 | < 4.52 | < 4.52 | < 4.52 | 29.8
NC(=O)c1cccc2[nH]c(NC(=O)c3ccc(CN4CCC(Nc5ncc(I)cn5)CC4)cc3)nc12 | < 4.52 | 4.56 | 4.54 | 40.8
NC(=O)c1cccc2[nH]c(NC(=O)c3ccc(S(=O)(=O)N4CCC(Nc5ncc(Br)cn5)CC4)cc3)nc12 | 4.58 | 4.61 | < 4.52 | 77.6
